One molecule from paper PMC7987348, “Structural basis for human TRPC5 channel inhibition by two distinct inhibitors” (eLife, 2021) can be followed below.

Assay [1] addresses T1, hTRPC5 WT (Homo sapiens, UniProt Q9UL62).
T1 construct: We use full-length nontagged hTRPC5 construct for FLIPR assay unless indicated otherwise; expressed in transfected cells; host or cells: AD293
T1 sequence (Q9UL62 1-973): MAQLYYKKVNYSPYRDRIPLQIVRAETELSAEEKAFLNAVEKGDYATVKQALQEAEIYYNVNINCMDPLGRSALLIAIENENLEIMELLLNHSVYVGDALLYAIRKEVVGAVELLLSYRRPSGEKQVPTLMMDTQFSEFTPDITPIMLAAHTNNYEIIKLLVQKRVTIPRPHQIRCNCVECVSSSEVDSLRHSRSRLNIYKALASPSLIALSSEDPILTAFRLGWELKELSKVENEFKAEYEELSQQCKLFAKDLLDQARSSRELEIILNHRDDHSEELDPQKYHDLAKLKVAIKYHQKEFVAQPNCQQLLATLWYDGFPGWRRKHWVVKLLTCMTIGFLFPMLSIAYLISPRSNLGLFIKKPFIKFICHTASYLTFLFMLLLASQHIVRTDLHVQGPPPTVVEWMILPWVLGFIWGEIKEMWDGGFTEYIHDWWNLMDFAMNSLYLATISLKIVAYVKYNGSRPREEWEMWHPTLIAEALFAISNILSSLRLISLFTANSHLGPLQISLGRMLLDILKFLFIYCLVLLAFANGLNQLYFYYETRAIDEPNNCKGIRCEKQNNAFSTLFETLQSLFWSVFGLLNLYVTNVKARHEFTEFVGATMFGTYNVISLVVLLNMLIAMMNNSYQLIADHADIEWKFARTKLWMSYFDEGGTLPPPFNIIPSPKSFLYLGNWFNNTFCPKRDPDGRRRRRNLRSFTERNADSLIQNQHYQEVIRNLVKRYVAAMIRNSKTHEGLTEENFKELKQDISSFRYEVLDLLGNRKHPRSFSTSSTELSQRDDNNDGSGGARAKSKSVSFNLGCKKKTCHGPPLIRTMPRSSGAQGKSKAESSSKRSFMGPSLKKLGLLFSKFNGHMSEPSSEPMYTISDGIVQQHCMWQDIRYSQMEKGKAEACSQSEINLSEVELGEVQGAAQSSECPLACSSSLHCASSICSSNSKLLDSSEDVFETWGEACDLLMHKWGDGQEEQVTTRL
As to the kind of experiment: FLIPR calcium assay, inhibition of extracellular calcium-induced intracellular calcium increase. It counts as cell-based. In general terms: Calcium flux is commonly read through the fluorescence of an indicator in the cells.

Assay [2] concerns the target T2, hTRPC5 N443L (Homo sapiens, UniProt Q9UL62, N443L).
T2 construct: We use full-length nontagged hTRPC5 construct for FLIPR assay unless indicated otherwise; expressed in transfected cells; host or cells: AD293
T2 sequence (Q9UL62 1-973 N443L): T1 sequence (Q9UL62 1-973) with N443L
The assay can be described thus: FLIPR calcium assay, hTRPC5 mutant N443L. The format is cell-based. How it is done: […]. Then the suspended cell culture was further diluted for 5.4- to 7-fold with culture medium and seeded onto black well, clear bottom, poly-D-lysine-coated 96-well plate (Costar) and cultured overnight. We use full-length nontagged hTRPC5 construct for FLIPR assay unless indicated otherwise. hTRPC5 plasmids were transfected into AD293 cells (60-80% confluence) with PEI. 30–40 hr post-transfection, culture medium was discarded and cells were incubated with 50 μl per well of 4 μM Rhod-2/AM (AAT Bioquest) in TARODES’s buffer (10 mM HEPES, 150 mM NaCl, 4 mM KCl, 2 mM MgCl2, 2 mM CaCl2, 11 mM glucose, pH 7.4) supplemented with 0.02% Pluronic F-127 (Sigma) for 5 min in dark at room temperature. Then dye was removed and replaced with 50 μl of TARODE’s buffer per well. The application of compounds and detection of intracellular calcium elevation were performed using FLIPR-TETRA (Molecular Devices) at room temperature (25–27°C). Fluorescence signals were read with excitation/emission at 510–545/565–625 nm.
[…]. Then fluorescence was measured for 300 s.
Buffer A contains 2× concentration of working concentration of inhibitor. […]. for control-Min, both buffer A and buffer B were replaced by TARODE’s buffer.
[…]; the average of fluorescence value of last 20 time points was considered as the ‘end fluorescence’. The value of ‘end fluorescence’ minus ‘start fluorescence’ was considered as ‘signal value’ for each well. […].
Three independent experiments were performed on different days (biological replicates), with each experiment containing three replicates (technique replicates).

Assay [3] concerns the target T3, hTRPC5 (Homo sapiens, UniProt Q9UL62).
T3 sequence (Q9UL62 1-973): T1 sequence (Q9UL62 1-973)
The assay can be described thus: Whole cell recording of EA-elicited hTRPC5 currents in low calcium condition. Conditions: 50 μM CMZ; 200 nM EA; 1 mM EGTA and 1 mM EDTA to chelate intracellular Ca2+; −60 mV.

Where [4] appears, read: CMZ, 14 mM extracellular calcium, read-out: IC50.
Setting [5] is: CMZ, log of IC50 in μM, logIC50 ± SEM, n = 3, read-out: LogIC50 (converted).
Setting [6] is: read-out: normalized RFU (% WT), Clemizole 0.800781 μM, 14 mM Ca2+, each column one independent experiment.

Changes are numbered by the printed parent chain. Like-named read-outs stand apart in the source and are kept apart here.

As to `Clc1ccc(Cn2c(CN3CCCC3)nc3ccccc32)cc1` [CMZ, clemizole], the Hill slope in assay [1] (CMZ) was −2.52; in assay [2] (CMZ) it was −2.42. The IC50 in assay [1] (setting [4]) is 3.07 µM; in assay [1] (setting [5]) it was 3.09 µM; in assay [2] (setting [4]), 10.4 µM; in assay [2] (setting [5]), 10.5 µM. For the same molecule, the remaining activity at 0.200195 µM in assay [1] (read-out: normalized RFU (% WT), Clemizole 0.200195 μM, 14 mM Ca2+, each column one independent experiment) worked out at 76.4%. In addition, the remaining activity at 0.800781 µM in assay [1] (setting [6]) stood at 72.6%; in assay [2] (setting [6]), 64.6%. For the same molecule, in assay [1] (read-out: normalized RFU (% WT), Clemizole 1.60156 μM, 14 mM Ca2+, each column one independent experiment), the remaining activity at 1.60156 µM is 70.5%. Further, in assay [2] (read-out: normalized RFU (% WT), Clemizole 0.400391 μM, 14 mM Ca2+, each column one independent experiment), the remaining activity at 0.400391 µM came to 89.5%. Also, the remaining activity at 3.20312 µM in assay [2] (read-out: normalized RFU (% WT), Clemizole 3.20312 μM, 14 mM Ca2+, each column one independent experiment) was 56.3%. Moreover, the remaining activity at 6.40625 µM in assay [2] (read-out: normalized RFU (% WT), Clemizole 6.40625 μM, 14 mM Ca2+, each column one independent experiment) came to 52.8%. The “inhibition of EA-elicited currents” value in assay [3] is given as “could inhibit EA-elicited currents”.

Usually Hill slope stands for a measure of the steepness of the concentration-response curve.
